This is an account of results in US9475798B2, “Azetidine estrogen receptor modulators and uses thereof” (Genentech, Inc., priority 2013, dated 2016).

One data set relates to MCF-7 cells. The data set is described as follows: Breast Cancer Cell Viability Assay (MCF7, CellTiter-Glo).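 As to all read-outs here: CellTiter-Glo luminescence read-out, background from cell-free medium subtracted, viability expressed against untreated cells, ten-point 1:5 compound dilution series spanning 10 to 0.000005 µM.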 To be noted: for MCF7 Viability Assay: % Viability relative to Fulvestrant: 5 days, 100-{100*[(100-% viability of Example)/(100-% viability of Fulvestrant)]}; for pIC50: read-out: MCF7 Viability Assay IC50, 5 days' compound exposure.
Data set [1] deals with tamoxifen resistant MCF-7 tumors. The data set is described as follows: Breast Cancer Model; Xenograft Assay (MCF-7 Derivative). It counts as in vivo. The following applies: female nu/nu mice. The procedure:
Female nu/nu mice (with supplemental 17-β Estradiol pellets; 0.72 mg; 60 day slow release) bearing MCF-7 tumors (mean tumor volume 200 mm^3) were treated with Tamoxifen (citrate) by oral gavage. Tumor volume (length×width^2/2) and body weight were monitored twice weekly. Following a significant anti-tumor response in which tumor volume remained static, evident tumor growth was first observed at approximately 100 days of treatment. At 120 days of treatment, tamoxifen dose was increased. Rapidly growing tumors were deemed tamoxifen resistant and selected for in vivo passage into new host animals. Tumor Fragments (˜100 mm^3/animal) from the tamoxifen resistant tumors were subcutaneously implanted into the right flank of female nu/nu mice (with 17-β Estradiol pellets (0.72 mg; 60 day slow release)). Passaged tumors were maintained under constant Tamoxifen selection, and Tumor volume (length×width^2/2) was monitored weekly. When tumor volume reached ˜150-250 mm^3, animals were randomized into treatment groups (mean tumor volume 200 mm^3) and tamoxifen treatment was terminated (except for a tamoxifen control arm). Animals were treated with Vehicle or Compound daily for 4 weeks. Tumor volume and body weight were monitored twice weekly for the duration of the study. At the conclusion of the treatment period; plasma and tumor samples were taken for pharmacokinetic and pharmacodynamic analyses, respectively.

pIC50: −log10 of the molar value.

As a reminder, the pIC50 is the IC50 on a negative log10 scale, so that one unit is a factor of ten. Turning to `CC1=C(c2cccc(O)c2)[C@H](c2ccc(OC[C@H](C)N3CC[C@@H](C)C3)cc2)Oc2ccc(O)cc21` [(S)-3-(3-Hydroxyphenyl)-4-methyl-2-(4-((S)-2-((R)-3-methylpyrrolidin-1-yl)propoxy)phenyl)-2H-chromen-6-ol, reference compound], in the data set with MCF-7 cells, the “MCF7 Viability Assay: % Viability relative to Fulvestrant” value amounted to 8%. In addition, in the data set on MCF-7 cells, the pIC50 was 9.89. For the same compound, the “Number of Tumors Smaller at t = 27 days than at Start of study (t = 0 days)” value is listed as 0/8 in data set [1] (10mpk oral dose each day), 1/8 in data set [1] (30mpk oral dose each day) and 1/8 in data set [1] (100mpk oral dose each day).
`CC1=C(c2ccc(F)cc2)[C@H](c2ccc(OCCN3CC(CF)C3)cc2)Oc2ccc(O)cc21` (single isomer, unassigned) [Example 3]: in the data set with MCF-7 cells, the “MCF7 Viability Assay: % Viability relative to Fulvestrant” value was found to be 8%. The pIC50 with MCF-7 cells is 9.77. Besides, the entries for the “Number of Tumors Smaller at t = 27 days than at Start of study (t = 0 days)” value in data set [1] (10mpk oral dose each day), in data set [1] (30mpk oral dose each day) and in data set [1] (100mpk oral dose each day) were 2/8, 3/8 and 5/8, respectively.
